Data: US7252944B2, “Methods and compositions for modulating cell proliferation” (IRM LLC, priority 2003, dated 2007)

Legend:
[1] = target: T1, SHMT1 (Homo sapiens, UniProt P34896); assay: SHMT1 enzymatic assay after phosphorylation by p38; type: biochemical; settings: stated as in vitro; FIG. 4
T1 construct: expressed in transfected cells; host or cells: HEK-293 cells, retroviral infection with pBabe puro and puromycin selection (SHMT1-HEK293)
T1 sequence (P34896 1-483): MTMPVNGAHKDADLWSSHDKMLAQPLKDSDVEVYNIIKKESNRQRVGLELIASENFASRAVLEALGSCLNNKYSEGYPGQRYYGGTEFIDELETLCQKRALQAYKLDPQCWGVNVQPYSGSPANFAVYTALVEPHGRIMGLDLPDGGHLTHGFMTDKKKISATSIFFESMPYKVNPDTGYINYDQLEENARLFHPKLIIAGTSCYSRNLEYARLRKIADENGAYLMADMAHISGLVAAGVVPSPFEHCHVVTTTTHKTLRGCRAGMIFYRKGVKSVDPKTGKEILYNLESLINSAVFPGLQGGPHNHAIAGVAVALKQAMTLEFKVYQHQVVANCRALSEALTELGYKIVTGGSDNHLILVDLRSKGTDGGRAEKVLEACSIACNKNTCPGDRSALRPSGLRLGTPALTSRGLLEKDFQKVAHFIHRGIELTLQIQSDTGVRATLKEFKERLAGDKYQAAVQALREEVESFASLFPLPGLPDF
Protocol: (§1) Enzymatic assay for serine hydroxymethyltransferase 2 (Shm2): GST-Shm2 was purified from a yeast strain as described above and its enzymatic activity was measured as described earlier (Krishna Rao et al., Biochem J 343 Pt 1, 257-63, 1999) with minor modifications. To measure the effect of either Hog1-as1 or p38 kinases, Shm2 enzyme was pre-incubated with each kinase in presence of either 1 mM PE-ATP (for Hog1-as1) or 1 mM ATP (for p38) for 30 min at RT before adding to the reaction mixture.
(§2) Transient transfection and SHMT1 assay: MKK6b was cloned into pcDNA6Hismyc B vector (Invitrogen) and MKK6b-EE was further generated using Quick change protocol (Stratagene). Transient transfection of MKK6b-EE into SHMT1-HEK 293 cells was carried using Lipofectamine 2000 (Invitrogen) according to the manufacturer's protocol. Immunoprecipitation procedure for SHMT1 from transfected cells was described previously (Shah and Shokat, Chem Biol 9, 35-47, 2002). SHMT1 enzymatic assay was carried out exactly as Shm2 assay as described above. SHMT1 or phosphorylated form of p38α was detected by immunobloting with either c-myc antibody (Santa Cruz) or phospho-p38 antibody (Cell Signal) using West pico supersignal kit (Pierce).

[2] = target: T2, Shm2 (Saccharomyces cerevisiae, UniProt P37291); assay: Enzymatic assay for serine hydroxymethyltransferase 2 (Shm2) after pre-incubation with kinase; type: biochemical; settings: in vitro; pre-incubation with p38α and 1 mM ATP, 30 min RT; FIG. 2D
T2 construct: made in house; host or cells: Saccharomyces cerevisiae
T2 sequence (P37291 1-469): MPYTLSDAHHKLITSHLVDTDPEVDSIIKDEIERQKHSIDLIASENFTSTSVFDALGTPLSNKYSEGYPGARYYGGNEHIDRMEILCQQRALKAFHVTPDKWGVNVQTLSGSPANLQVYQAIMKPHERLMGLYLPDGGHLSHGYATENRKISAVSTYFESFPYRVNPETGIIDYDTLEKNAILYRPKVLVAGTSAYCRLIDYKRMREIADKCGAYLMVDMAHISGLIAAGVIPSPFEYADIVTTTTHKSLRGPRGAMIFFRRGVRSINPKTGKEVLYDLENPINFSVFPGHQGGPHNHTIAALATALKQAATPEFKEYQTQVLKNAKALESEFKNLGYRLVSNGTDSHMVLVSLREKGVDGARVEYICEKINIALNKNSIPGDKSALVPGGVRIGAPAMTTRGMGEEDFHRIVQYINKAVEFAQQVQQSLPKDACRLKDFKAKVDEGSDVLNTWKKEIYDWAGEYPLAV
Protocol: as §1
To determine Shm2 activity, we measured the transfer of C^14-labeled one-carbon unit as described in the Krishna Rao et al., Biochem J 343 Pt 1, 257-63, 1999. In order to estimate the effect of phosphorylation, Shm2 was pre-incubated with or without Hog 1 kinase, prior to the C^14 transfer reaction.

[3] = test system: SHMT1; assay: SHMT1 activity immunoprecipitated from sorbitol-stimulated SHMT1-HEK293 cells; type: cell-based, human; settings: serum-starved SHMT1-HEK293 cells, 0.3 M sorbitol, 15 or 30 min; FIG. 3
Protocol: Transfection and retroviral infection: SHMT1 (human homolog of yeast Shm2) with a C-terminal myc tag was cloned into pBabe puro plasmid and was transiently transfected into Bosc 23 cells using Effectene (Qiagen) as manufacturer's protocol. The harvested retroviruses was added to 5×10^5 HEK-293 cells for infection. After 48 hours the infected cells were selected in the presence of 2.5 µg/mL of puromycin. SHMT1-HEK293 cells were cultured in DMEM with 10% Bovine Calf Serum (BCS) and were serum-starved for 24 hr in DMEM with 0.5% BCS.
as §2, with “Immunoprecipitation procedure for SHMT1 from transfected cells was described previously (Shah and Shokat, Chem Biol 9, 35-47, 2002). SHMT1 enzymatic assay was carried out exactly as Shm2 assay as described above.” left out
Finally, to investigate whether SHMT1 was also an in vivo target of p38 MAP kinase, myc-tagged SHMT1 expressing HEK 293 stable cells were generated. […] SHMT1 was immunoprecipitated at different time points after stimulation and its enzymatic activity was measured as described above. […]

[4] = test system: hog1-as1 mutant strain (hog1-27); assay: Genome-wide expression analysis, hog1-as1 mutant strain under salt; type: cell-based, Saccharomyces cerevisiae; settings: MUTS+1-NM-PP1 versus MUTS+DMSO; 1-NM-PP1 2 μM, 0.9 M NaCl
Protocol: (§3) Genome-wide expression analysis: Total RNA preparation from hog1-27 strain was performed as described previously (Holstege et al., Cell 95, 717-28, 1998). To monitor the changes in expression caused by specific inhibition of Hog1 kinase, cultures of either wt or hog1-27 were incubated with 1-NM-PP1 (2 μM) for 30 minutes before harvesting (for control, 0.002% DMSO was added). To monitor the effect of osmotic stress, sodium chloride was added into either inhibitor-treated or DMSO-treated cultures to a final concentration of 0.9 M.
(§4) The preparation of probe and the procedure for microassay experiments was performed as described in the literature. The output files from the scanner were uploaded into the GNF chip informatics server and expression profiles were analyzed using a built-in analysis program, ANOVA. Search for the common transcriptional regulatory elements was done using the promoter database of Saccharomyces cerevisiae at the Cold Spring Harbor Laboratory.
For DNA micro-array experiments, total RNAs were isolated from both the wt strain and the hog1-as1 mutant strain (hog1-27) treated with DMSO (WT+DMSO, MUT+DMSO), salt and DMSO (WTS+DMSO, MUTS+DMSO), salt and inhibitor (WTS+1-NM-PP1, MUTS+1-NM-PP1). For each experiment, RNA samples were prepared in duplicates, followed by the preparation of the corresponding biotinylated cRNA probes and hybridized to Yeast Genome S98 arrays (Affymetrix). Two expression profiles were first examined between duplicate samples to ensure reproducibility and the whole procedure was repeated three times. […] To analyze the number of genes affected by salt addition, expression profiles of MUTS+DMSO versus MUT+DMSO were compared by ANOVA (Brazma and Vilo, 2000). The expressions of 874 genes in the mutant strain were changed more than 2.5 fold by the addition of salt. Thus, the analysis covered almost the full complement of genes known to be affected by osmotic stress.
The effect of inhibition in the hog1-as1 mutant strain was examined by comparing the expression profiles of MUTS+1-NM-PP1 versus MUTS+DMSO. […]

[5] = test system: wt strain; assay: Genome-wide expression analysis, wt strain under salt; type: cell-based, Saccharomyces cerevisiae; settings: 1-NM-PP1 2 μM, 0.9 M NaCl
Protocol: as §3, §4
For DNA micro-array experiments, total RNAs were isolated from both the wt strain and the hog1-as1 mutant strain (hog1-27) treated with DMSO (WT+DMSO, MUT+DMSO), salt and DMSO (WTS+DMSO, MUTS+DMSO), salt and inhibitor (WTS+1-NM-PP1, MUTS+1-NM-PP1). […]

[6] = test system: SHMT; settings: background statement; cited from earlier work

## p38 MAP kinase: Active p38α MAP kinase purchased from Upstate Inc.; human homolog of Hog1
[1]
  modulation of SHMT1 enzymatic activity upon phosphorylation: 30%
[2]
  modulation of Shm2 enzymatic activity upon phosphorylation: ~50%

## OC[C@@H](O)[C@@H](O)[C@H](O)[C@@H](O)CO [sorbitol]
[3]
  SHMT1 enzymatic activity after sorbitol treatment: decreased activity of SHMT1

## CC(C)(C)n1nc(Cc2cccc3ccccc23)c2c(N)ncnc21 [1-NM-PP1]
[4]
  number of genes affected more than 2-fold by addition of inhibitor: 96 genes
  number of genes downregulated by addition of inhibitor: 81 genes
  number of genes upregulated by addition of inhibitor: 15 genes
[5]
  number of genes affected by addition of inhibitor: 11 genes

## CN(Cc1cnc2nc(N)nc(N)c2n1)c1ccc(C(=O)N[C@@H](CCC(=O)O)C(=O)O)cc1 [methotrexate]
[6]
  inhibition of SHMT activity: failed to inhibit SHMT activity significantly
